The nature of data set [1]: Plasma stability in human plasma, HPLC. The format is in vitro ADME. Conditions: 300 μM, 37° C., up to 7 days. As to the method:
(§1) Compound N-Ac-Cys-AMA-10 and methyl phenyl sulfone (used as a standard material) were dissolved in DMSO to make a concentration of 30 mM. Then, each of human plasma (Biochemed 752PR—SC-PMG) and mouse plasma (Biochemed 029-APSC-MP) were mixed with the N-Ac-Cys-AMA-10 and MPS to make a final concentration of N-Ac-Cys-AMA-10 and methyl phenyl sulfone 300 μM. The resulting plasma mixtures were incubated in a water bath at 37° C. Aliquots were taken before the reaction and on 1 day, 2 days, 4 days, and 7 days after the reaction, wherein each aliquot was 200 μL. To complete the reaction, a two-fold volume of acetonitrile was added, followed by brief vortexing, and centrifugation for plasma protein precipitation. Each supernatant obtained after centrifugation was collected and analyzed by HPLC.

The nature of data set [2]: Plasma stability in mouse plasma, HPLC. The format is in vitro ADME. Conditions: 300 μM, 37° C., up to 7 days. The protocol:
as §1

Data set [3] in a line: Relative reaction rate with N-Ac-cysteine (LC/MS). Type of data set: physicochemical. Conditions: with N-acetyl-L-cysteine in PBS buffer/DMSO, 1 hour, room temperature; relative to Reference A = 1. The protocol: To a homogeneous solutions of ‘reference A’, PyrMPS-1, and mMPS-4 (10 stock solution 10 mmol) in PBS buffer (870 μL) and DMSO (90 μL) was added N-acetyl-L-cysteine (10 stock solution 10 mmol) and stirred for 1 hour at room temperature. The resulting samples were checked for reaction rate using LC/MS.

Take `C#CCOCCOCCOCCNC(=O)c1cc(C(=O)CC(SC[C@H](NC(C)=O)C(=O)O)C(N)=O)cc(C(=O)NCCOCCOCCOCC#C)c1` (some centres unmarked) [N-Ac-Cys-AMA-10]: the “stability in human plasma” value in data set [1] was “high stability”. In addition, the “stability in mouse plasma” value in data set [2] is “high stability”.

In data set [3], `Cc1ccc(S(=O)(=O)CCC(=O)c2ccc(C(=O)NCCOCCOCCOCCOCCOCCN=[N+]=[N-])cc2)cc1` [Reference A, reference compound] returned a Relative reaction rate of 1 folds.

Take `COC(=O)c1cc(C(=O)CCS(=O)(=O)c2ccc(C)cc2)cc(C(=O)NCCOCCOCCOCCOCCOCCN=[N+]=[N-])c1` [mMPS-4]: the Relative reaction rate result in data set [3] is given as “Increase 7 folds”.

Regarding `Cc1ccc(S(=O)(=O)CCC(=O)c2cncc(C(=O)NCCOCCOCCOCCOCCOCCN=[N+]=[N-])c2)cc1` [pyrMSP-1], the Relative reaction rate entry in data set [3] is listed as “Increase 11.5 folds”.
